Assay results published in PubChem BioAssay (NCI).
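A five-concentration, 48-hour dose response in 96-well plates underlies each endpoint, interpolated linearly between surrounding concentrations. Abbreviation: GI50, concentration required for 50% inhibition of growth. TGI marks complete inhibition of growth.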

What was measured:
Assay in all cases: growth of human tumour cells (NCI), 48 h
SF-539 CNS = tested on: SF-539 CNS
UACC-62 melanoma = tested on: UACC-62 melanoma
KM12 colon = tested on: KM12 colon
NCI/ADR-RES ovarian = tested on: NCI/ADR-RES ovarian
OVCAR-8 ovarian = tested on: OVCAR-8 ovarian
LOX IMVI melanoma = tested on: LOX IMVI melanoma
OVCAR-3 ovarian = tested on: OVCAR-3 ovarian
SW-620 colon = tested on: SW-620 colon
A549 NSCLC = tested on: A549 NSCLC
NCI-H460 lung = tested on: NCI-H460 lung

| Structure (SMILES) | TGI (SF-539 CNS) | TGI (UACC-62 melanoma) | TGI (KM12 colon) | TGI (NCI/ADR-RES ovarian) | TGI (OVCAR-8 ovarian) | TGI (LOX IMVI melanoma) | TGI (OVCAR-3 ovarian) | TGI (SW-620 colon) | TGI (A549 NSCLC) | TGI (NCI-H460 lung) | GI50 (SF-539 CNS) | GI50 (UACC-62 melanoma) | GI50 (KM12 colon) | GI50 (NCI/ADR-RES ovarian) | GI50 (OVCAR-8 ovarian) | GI50 (LOX IMVI melanoma) | GI50 (OVCAR-3 ovarian) | GI50 (SW-620 colon) | GI50 (A549 NSCLC) | GI50 (NCI-H460 lung) |
| --- | --- | --- | --- | --- | --- | --- | --- | --- | --- | --- | --- | --- | --- | --- | --- | --- | --- | --- | --- | --- |
| COC1=CC(=O)C(C2(OC(C)C)OC(=O)C(Cl)=C2Cl)=CC1=O (stereo not given) | > 100 µM | > 100 µM | > 100 µM | > 100 µM | 78.8 µM | > 100 µM | > 100 µM | > 100 µM | > 100 µM | > 100 µM |  |  |  |  |  |  |  |  |  |  |
| c1ccc(Nc2ncc(-c3ccccc3)o2)cc1 | > 25 µM | > 25 µM | > 25 µM | > 25 µM | > 25 µM | > 25 µM | > 25 µM | > 25 µM | > 25 µM | > 25 µM | > 25 µM | > 25 µM | 10.7 µM | > 25 µM | > 25 µM | 22.6 µM | > 25 µM | > 25 µM | > 25 µM | 25 µM |
| CC[C@@H](c1ccc(O)c(O)c1)[C@@H](CC)c1ccc(O)c(O)c1 | 23.6 µM | 23.4 µM | 35.1 µM | 62.7 µM | > 100 µM | 9.91 µM | 11.6 µM | 5.67 µM | > 100 µM | 62 µM | 6.66 µM | 10.4 µM | 18.5 µM | 10.1 µM | 25.6 µM | 2.85 µM | 3.61 µM | 2.4 µM | 31.9 µM | 26.1 µM |
| COc1ccccc1NC(=O)c1cc2cc(Br)ccc2cc1O | 7.34 µM | 8.23 µM | 10.8 µM | 12.1 µM | 14.7 µM | 8.8 µM | 9.06 µM | 11.1 µM | 7.71 µM | 6.77 µM | 2.34 µM | 1.7 µM | 3.17 µM | 2.75 µM | 3 µM | 2.69 µM | 2.48 µM | 3.12 µM | 2.65 µM | 2.15 µM |
| Cc1cc2c(cc1C)[n+](=O)c(C(=O)c1ccccc1)c(C(F)F)n2[O-] | 72.5 µM | 96.9 µM | > 100 µM | > 100 µM | > 100 µM | > 100 µM | > 100 µM | > 100 µM | 27.4 µM | > 100 µM | 18.4 µM | 18.4 µM | 20.5 µM | 36.3 µM | 7.11 µM | 10.3 µM | 18.4 µM | 21.2 µM | 4.9 µM | 5 µM |
| O=C(Nc1cccc(C(F)(F)F)c1)Nc1cccc(C(F)(F)F)c1 | 5.23 µM | 2.66 µM | 3.19 µM | 4.84 µM | 10.4 µM | 2.28 µM | 5.04 µM | 6.88 µM | 8.21 µM | 5.73 µM | 2.13 µM | 0.702 µM | 0.444 µM | 0.651 µM | 1.06 µM | 1 µM | 0.408 µM | 0.798 µM | 0.531 µM | 0.441 µM |
| Br[Se]c1ccccn1 | 30 µM | 30.9 µM | 31.7 µM | 61.6 µM | 36 µM | 33 µM | 28.9 µM | 51.4 µM | 44.3 µM | 42 µM |  |  |  |  |  |  |  |  |  |  |
